{"source": "the NIST ThermoML archive (doi:10.1021/je700152c)", "key": {"[1]": {"experiment": "molar heat capacity at constant pressure; xn = mol fraction of the nth substance listed", "settings": "101 kPa, Liquid, x1 = 0.37"}}, "note": "± gives the expanded uncertainty stated by the source."}
{"smiles": "CCCCn1cc[n+](C)c1.Cc1ccc(S(=O)(=O)[O-])cc1", "note": "[1-butyl-3-methylimidazolium tosylate]", "values": [{"measurement": "Triple point temperature", "setting": "Crystal 1, Adiabatic calorimetry", "result": "343.8 ± 0.67", "unit": "K"}, {"measurement": "Triple point temperature", "setting": "Crystal 2, Adiabatic calorimetry", "result": "152 ± 1", "unit": "K"}, {"measurement": "Triple point temperature", "setting": "Metastable crystal", "result": "342.48 ± 0.2", "unit": "K"}]}
{"smiles": "CCCCn1cc[n+](C)c1.Cc1ccc(S(=O)(=O)[O-])cc1", "note": "[1-butyl-3-methylimidazolium tosylate] + O", "values": [{"measurement": "molar heat capacity at constant pressure", "setting": "[1]; 78.74 K", "result": "66.26 ± 0.88", "unit": "J/K/mol"}, {"measurement": "molar heat capacity at constant pressure", "setting": "[1]; 81.34 K", "result": "67.77 ± 0.88", "unit": "J/K/mol"}, {"measurement": "molar heat capacity at constant pressure", "setting": "[1]; 83.37 K", "result": "68.91 ± 0.88", "unit": "J/K/mol"}, {"measurement": "molar heat capacity at constant pressure", "setting": "[1]; 85.4 K", "result": "70.17 ± 0.88", "unit": "J/K/mol"}, {"measurement": "molar heat capacity at constant pressure", "setting": "[1]; 87.43 K", "result": "71.43 ± 0.88", "unit": "J/K/mol"}, {"measurement": "molar heat capacity at constant pressure", "setting": "[1]; 89.46 K", "result": "72.69 ± 1", "unit": "J/K/mol"}, {"measurement": "molar heat capacity at constant pressure", "setting": "[1]; 91.5 K", "result": "73.83 ± 1", "unit": "J/K/mol"}, {"measurement": "molar heat capacity at constant pressure", "setting": "[1]; 93.53 K", "result": "75.09 ± 1", "unit": "J/K/mol"}, {"measurement": "molar heat capacity at constant pressure", "setting": "[1]; 95.58 K", "result": "76.35 ± 1", "unit": "J/K/mol"}, {"measurement": "molar heat capacity at constant pressure", "setting": "[1]; 97.63 K", "result": "77.49 ± 1", "unit": "J/K/mol"}, {"measurement": "molar heat capacity at constant pressure", "setting": "[1]; 99.68 K", "result": "78.62 ± 1.1", "unit": "J/K/mol"}, {"measurement": "molar heat capacity at constant pressure", "setting": "[1]; 101.73 K", "result": "79.76 ± 1.1", "unit": "J/K/mol"}, {"measurement": "molar heat capacity at constant pressure", "setting": "[1]; 103.78 K", "result": "81.02 ± 1.1", "unit": "J/K/mol"}, {"measurement": "molar heat capacity at constant pressure", "setting": "[1]; 105.84 K", "result": "82.16 ± 1.1", "unit": "J/K/mol"}, {"measurement": "molar heat capacity at constant pressure", "setting": "[1]; 107.9 K", "result": "83.29 ± 1.1", "unit": "J/K/mol"}, {"measurement": "molar heat capacity at constant pressure", "setting": "[1]; 109.96 K", "result": "84.43 ± 1.1", "unit": "J/K/mol"}, {"measurement": "molar heat capacity at constant pressure", "setting": "[1]; 112.02 K", "result": "85.57 ± 1.1", "unit": "J/K/mol"}, {"measurement": "molar heat capacity at constant pressure", "setting": "[1]; 114.09 K", "result": "86.7 ± 1.1", "unit": "J/K/mol"}, {"measurement": "molar heat capacity at constant pressure", "setting": "[1]; 116.17 K", "result": "87.84 ± 1.1", "unit": "J/K/mol"}, {"measurement": "molar heat capacity at constant pressure", "setting": "[1]; 118.24 K", "result": "88.97 ± 1.1", "unit": "J/K/mol"}, {"measurement": "molar heat capacity at constant pressure", "setting": "[1]; 120.32 K", "result": "90.23 ± 1.1", "unit": "J/K/mol"}, {"measurement": "molar heat capacity at constant pressure", "setting": "[1]; 122.39 K", "result": "91.37 ± 1.1", "unit": "J/K/mol"}, {"measurement": "molar heat capacity at constant pressure", "setting": "[1]; 124.47 K", "result": "92.51 ± 1.1", "unit": "J/K/mol"}, {"measurement": "molar heat capacity at constant pressure", "setting": "[1]; 126.55 K", "result": "93.64 ± 1.3", "unit": "J/K/mol"}, {"measurement": "molar heat capacity at constant pressure", "setting": "[1]; 128.64 K", "result": "94.78 ± 1.3", "unit": "J/K/mol"}, {"measurement": "molar heat capacity at constant pressure", "setting": "[1]; 130.73 K", "result": "96.04 ± 1.3", "unit": "J/K/mol"}, {"measurement": "molar heat capacity at constant pressure", "setting": "[1]; 132.81 K", "result": "97.3 ± 1.3", "unit": "J/K/mol"}, {"measurement": "molar heat capacity at constant pressure", "setting": "[1]; 134.9 K", "result": "98.31 ± 1.3", "unit": "J/K/mol"}, {"measurement": "molar heat capacity at constant pressure", "setting": "[1]; 136.98 K", "result": "99.57 ± 1.3", "unit": "J/K/mol"}, {"measurement": "molar heat capacity at constant pressure", "setting": "[1]; 139.08 K", "result": "100.71 ± 1.3", "unit": "J/K/mol"}, {"measurement": "molar heat capacity at constant pressure", "setting": "[1]; 141.17 K", "result": "101.85 ± 1.3", "unit": "J/K/mol"}, {"measurement": "molar heat capacity at constant pressure", "setting": "[1]; 143.27 K", "result": "103.11 ± 1.3", "unit": "J/K/mol"}, {"measurement": "molar heat capacity at constant pressure", "setting": "[1]; 145.36 K", "result": "104.24 ± 1.3", "unit": "J/K/mol"}, {"measurement": "molar heat capacity at constant pressure", "setting": "[1]; 147.46 K", "result": "105.38 ± 1.3", "unit": "J/K/mol"}, {"measurement": "molar heat capacity at constant pressure", "setting": "[1]; 149.56 K", "result": "106.64 ± 1.3", "unit": "J/K/mol"}, {"measurement": "molar heat capacity at constant pressure", "setting": "[1]; 151.66 K", "result": "107.78 ± 1.3", "unit": "J/K/mol"}, {"measurement": "molar heat capacity at constant pressure", "setting": "[1]; 153.77 K", "result": "108.91 ± 1.3", "unit": "J/K/mol"}, {"measurement": "molar heat capacity at constant pressure", "setting": "[1]; 155.87 K", "result": "110.17 ± 1.4", "unit": "J/K/mol"}, {"measurement": "molar heat capacity at constant pressure", "setting": "[1]; 157.98 K", "result": "111.44 ± 1.4", "unit": "J/K/mol"}, {"measurement": "molar heat capacity at constant pressure", "setting": "[1]; 160.09 K", "result": "112.57 ± 1.4", "unit": "J/K/mol"}, {"measurement": "molar heat capacity at constant pressure", "setting": "[1]; 162.2 K", "result": "113.71 ± 1.4", "unit": "J/K/mol"}, {"measurement": "molar heat capacity at constant pressure", "setting": "[1]; 164.31 K", "result": "114.97 ± 1.4", "unit": "J/K/mol"}, {"measurement": "molar heat capacity at constant pressure", "setting": "[1]; 166.42 K", "result": "116.23 ± 1.4", "unit": "J/K/mol"}, {"measurement": "molar heat capacity at constant pressure", "setting": "[1]; 168.54 K", "result": "117.37 ± 1.4", "unit": "J/K/mol"}, {"measurement": "molar heat capacity at constant pressure", "setting": "[1]; 170.66 K", "result": "118.63 ± 1.4", "unit": "J/K/mol"}, {"measurement": "molar heat capacity at constant pressure", "setting": "[1]; 172.78 K", "result": "119.89 ± 1.4", "unit": "J/K/mol"}, {"measurement": "molar heat capacity at constant pressure", "setting": "[1]; 174.9 K", "result": "121.03 ± 1.4", "unit": "J/K/mol"}, {"measurement": "molar heat capacity at constant pressure", "setting": "[1]; 177.02 K", "result": "122.29 ± 1.4", "unit": "J/K/mol"}, {"measurement": "molar heat capacity at constant pressure", "setting": "[1]; 179.14 K", "result": "123.55 ± 1.4", "unit": "J/K/mol"}, {"measurement": "molar heat capacity at constant pressure", "setting": "[1]; 181.27 K", "result": "124.94 ± 1.5", "unit": "J/K/mol"}, {"measurement": "molar heat capacity at constant pressure", "setting": "[1]; 183.39 K", "result": "126.58 ± 1.5", "unit": "J/K/mol"}, {"measurement": "molar heat capacity at constant pressure", "setting": "[1]; 185.51 K", "result": "128.6 ± 1.5", "unit": "J/K/mol"}, {"measurement": "molar heat capacity at constant pressure", "setting": "[1]; 187.64 K", "result": "131.63 ± 1.5", "unit": "J/K/mol"}, {"measurement": "molar heat capacity at constant pressure", "setting": "[1]; 189.76 K", "result": "138.07 ± 1.5", "unit": "J/K/mol"}, {"measurement": "molar heat capacity at constant pressure", "setting": "[1]; 191.84 K", "result": "148.79 ± 1.6", "unit": "J/K/mol"}, {"measurement": "molar heat capacity at constant pressure", "setting": "[1]; 193.9 K", "result": "159.02 ± 1.8", "unit": "J/K/mol"}, {"measurement": "molar heat capacity at constant pressure", "setting": "[1]; 195.93 K", "result": "176.18 ± 1.9", "unit": "J/K/mol"}, {"measurement": "molar heat capacity at constant pressure", "setting": "[1]; 198 K", "result": "179.59 ± 1.9", "unit": "J/K/mol"}, {"measurement": "molar heat capacity at constant pressure", "setting": "[1]; 200.12 K", "result": "180.34 ± 1.9", "unit": "J/K/mol"}, {"measurement": "molar heat capacity at constant pressure", "setting": "[1]; 202.26 K", "result": "181.1 ± 1.9", "unit": "J/K/mol"}, {"measurement": "molar heat capacity at constant pressure", "setting": "[1]; 204.39 K", "result": "181.73 ± 1.9", "unit": "J/K/mol"}, {"measurement": "molar heat capacity at constant pressure", "setting": "[1]; 206.52 K", "result": "182.24 ± 1.9", "unit": "J/K/mol"}, {"measurement": "molar heat capacity at constant pressure", "setting": "[1]; 208.65 K", "result": "182.87 ± 1.9", "unit": "J/K/mol"}, {"measurement": "molar heat capacity at constant pressure", "setting": "[1]; 210.79 K", "result": "183.5 ± 1.9", "unit": "J/K/mol"}, {"measurement": "molar heat capacity at constant pressure", "setting": "[1]; 212.93 K", "result": "184.13 ± 1.9", "unit": "J/K/mol"}, {"measurement": "molar heat capacity at constant pressure", "setting": "[1]; 215.07 K", "result": "184.63 ± 1.9", "unit": "J/K/mol"}, {"measurement": "molar heat capacity at constant pressure", "setting": "[1]; 217.23 K", "result": "185.39 ± 1.9", "unit": "J/K/mol"}, {"measurement": "molar heat capacity at constant pressure", "setting": "[1]; 219.38 K", "result": "185.9 ± 1.9", "unit": "J/K/mol"}, {"measurement": "molar heat capacity at constant pressure", "setting": "[1]; 221.54 K", "result": "186.65 ± 1.9", "unit": "J/K/mol"}, {"measurement": "molar heat capacity at constant pressure", "setting": "[1]; 223.7 K", "result": "187.28 ± 1.9", "unit": "J/K/mol"}, {"measurement": "molar heat capacity at constant pressure", "setting": "[1]; 225.87 K", "result": "188.04 ± 1.9", "unit": "J/K/mol"}]}
